In article PMC7583898, “Novel Harmicines with Improved Potency against Plasmodium” (Molecules, 2020):
Where two headings read alike, the source gives them in different places.

Assays:
[1] = tested on: P. falciparum erythrocytic stage, Pf3D7 (chloroquine-sensitive) strain; experiment: In vitro drug sensitivity assay against erythrocytic stage of P. falciparum, Pf3D7 strain (HRP2-ELISA); assay type: cell-based; conditions: Plasmodium falciparum, mean ± SD
Protocol: (§1) The antiplasmodial activity of harmicines 5 and 6 was evaluated against two laboratory P. falciparum strains (3D7 – CQ-sensitive, and Dd2 – CQ-resistant), as previously described, using the histidine-rich protein 2 (HRP2) assay. […] After three days of incubation at 37 °C, 5% CO2 and 5% oxygen, plates were frozen until analyzed by HRP2-ELISA. All compounds were evaluated in duplicate in at least two independent experiments. The IC50 was determined by nonlinear regression analysis of log concentration–response curves using the drc package v0.9.0 of R v2.6.1 [22].

[2] = tested on: P. falciparum erythrocytic stage, PfDd2 (chloroquine-resistant) strain; experiment: In vitro drug sensitivity assay against erythrocytic stage of P. falciparum, PfDd2 strain (HRP2-ELISA); assay type: cell-based; conditions: Plasmodium falciparum, mean ± SD
Protocol: as §1

[3] = tested on: human liver hepatocellular carcinoma cell line (HepG2); experiment: In vitro cytotoxicity assay (neutral red); assay type: cell-based; conditions: for IC50: Homo sapiens, HepG2, 24 h, neutral red, one day incubation, mean ± SD; for SI, selectivity index: ratio between IC50 (HepG2) and IC50 (Pf3D7)
Protocol: A cytotoxicity assay was performed using the neutral red assay, as described previously, against human liver hepatocellular carcinoma cell line (HepG2) (Table 1). For the safety assessment, a selectivity index (SI) for each compound was calculated as the fractional ratio between the IC50 values for HepG2 and P. falciparum Pf3D7 strain (Table 2). In general, N-harmicines 5 are less cytotoxic than O-harmicines 6, which is in agreement with the results obtained for triazole-type harmicines. Furthermore, all N-harmicines, but only two O-harmicines, 6d and 6f, have more favorable SIs than the parent compound harmine (SI = 30). […] Compound 5b, with a m-fluorine substituent in the cinnamic scaffold, exerted the highest selectivity (SI = 773), followed by 5a, an amide with unsubstituted cinnamic acid (SI = 715).
Cytotoxicity against a human cell line (HepG2) was evaluated using the neutral red assay. In brief, human cells were seeded to a 96 well plate in complete culture medium, before on the following day a serial dilution of the respective compound was added. After one day of incubation, cytotoxicity was evaluated by the addition of Neutral Red, subsequent lysis of cells and the measurement of absorbance in a plate reader. The IC50 was determined as for the in vitro drug assay against P. falciparum. To assess the safety of a compound, SI was calculated as the fractional ratio between the IC50 values for HepG2 and the P. falciparum 3D7 strain.

[4] = tested on: P. falciparum erythrocytic stage, PfDd2 (chloroquine-resistant) strain; conditions: ref [15]; cited from earlier work
[5] = tested on: human liver hepatocellular carcinoma cell line (HepG2); set-up: method as in PMID 31812035; conditions: ref [15]; cited from earlier work
[6] = tested on: P. falciparum erythrocytic stage, Pf3D7 (chloroquine-sensitive) strain; set-up: method as in PMID 31812035; conditions: ref [15]; cited from earlier work

Structure (SMILES) | IC50 [1] | IC50 [2] | IC50 [3] | SI, selectivity index [3] | IC50 [4] | IC50 [5] | IC50 [6]
COc1ccc(/C=C/C(=O)NCCOc2ccc3c(c2)[nH]c2c(C)nccc23)cc1 [6f, (E)-3-(4-methoxyphenyl)-N-(2-((1-methyl-9H-pyrido[3,4-b]indol-7-yl)oxy)ethyl)acrylamide] | 210 ± 140 nM | 1090 ± 490 nM | 10500 ± 430 nM | 50 |  |  | 
Cc1nccc2c1[nH]c1cc(OCCNC(=O)/C=C/c3ccc(Cl)cc3)ccc12 [6e, (E)-3-(4-chlorophenyl)-N-(2-((1-methyl-9H-pyrido[3,4-b]indol-7-yl)oxy)ethyl)acrylamide] | 320 ± 30 nM | 400 ± 240 nM | 7720 ± 3040 nM | 24 |  |  | 
COc1ccc2c(c1)[nH]c1c(C)nccc12 [Harmine, harmine] |  |  |  |  | > 27700 nM | > 250000 nM | 
COc1ccc2c3ccnc(C)c3n(CCNC(=O)C=Cc3ccccc3)c2c1 [5a, N-(2-(7-methoxy-1-methyl-9H-pyrido[3,4-b]indol-9-yl)ethyl)cinnamamide] | 490 ± 250 nM | 1110 ± 150 nM | 350000 ± 13000 nM | 715 |  |  | 
Cc1nccc2c1[nH]c1cc(OCCNC(=O)/C=C/c3cccc(Br)c3)ccc12 [6c, (E)-3-(3-bromophenyl)-N-(2-((1-methyl-9H-pyrido[3,4-b]indol-7-yl)oxy)ethyl)acrylamide] | 370 ± 220 nM | 480 ± 280 nM | 6110 ± 2070 nM | 16 |  |  | 
Cc1nccc2c1[nH]c1cc(OCCNC(=O)/C=C/c3cccc(F)c3)ccc12 [6b, (E)-3-(3-fluorophenyl)-N-(2-((1-methyl-9H-pyrido[3,4-b]indol-7-yl)oxy)ethyl)acrylamide] | 2750 ± 1600 nM | 5010 ± 830 nM | 12900 ± 3310 nM | 5 |  |  | 
COc1ccc2c3ccnc(C)c3n(CCNC(=O)/C=C/c3cccc(F)c3)c2c1 [5b, (E)-3-(3-fluorophenyl)-N-(2-(7-methoxy-1-methyl-9H-pyrido[3,4-b]indol-9-yl)ethyl)acrylamide] | 70 ± 30 nM | 780 ± 320 nM | 54100 ± 13400 nM | 773 |  |  | 
Cc1nccc2c1[nH]c1cc(OCCNC(=O)C=Cc3ccccc3)ccc12 [6a, N-(2-((1-methyl-9H-pyrido[3,4-b]indol-7-yl)oxy)ethyl)cinnamamide] | 980 ± 120 nM | 4700 ± 2650 nM | 12700 ± 660 nM | 13 |  |  | 
COc1ccc2c3ccnc(C)c3n(CCNC(=O)/C=C/c3cccc(Br)c3)c2c1 [5c, (E)-3-(3-bromophenyl)-N-(2-(7-methoxy-1-methyl-9H-pyrido[3,4-b]indol-9-yl)ethyl)acrylamide] | 70 ± 30 nM | 410 ± 10 nM | 2880 ± 420 nM | 41 |  |  | 
C/C(=C\c1ccccc1)C(=O)NCCOc1ccc2c(c1)[nH]c1c(C)nccc12 [6h, (E)-2-methyl-N-(2-((1-methyl-9H-pyrido[3,4-b]indol-7-yl)oxy)ethyl)-3-phenylacrylamide] | 6780 ± 720 nM | 19500 ± 11800 nM | 61300 ± 2750 nM | 9 |  |  | 
Cc1nccc2c1[nH]c1cc(OCCNC(=O)/C=C/c3ccccc3F)ccc12 [6g, (E)-3-(2-fluorophenyl)-N-(2-((1-methyl-9H-pyrido[3,4-b]indol-7-yl)oxy)ethyl)acrylamide] | 930 ± 280 nM | 3920 ± 1350 nM | 16200 ± 1860 nM | 17 |  |  | 
CCN(CC)CCCC(C)Nc1ccnc2cc(Cl)ccc12 (stereo not drawn) [CQ, chloroquine] |  |  |  |  | 200 ± 100 nM |  | 3 ± 2 nM
Cc1nccc2c1[nH]c1cc(OCCNC(=O)/C=C/c3ccc(F)cc3)ccc12 [6d, (E)-3-(4-fluorophenyl)-N-(2-((1-methyl-9H-pyrido[3,4-b]indol-7-yl)oxy)ethyl)acrylamide] | 150 ± 60 nM | 690 ± 180 nM | 7630 ± 2470 nM | 51 |  |  | 
COc1ccc(/C=C/C(=O)NCCn2c3cc(OC)ccc3c3ccnc(C)c32)cc1 [5f, (E)-N-(2-(7-methoxy-1-methyl-9H-pyrido[3,4-b]indol-9-yl)ethyl)-3-(4-methoxyphenyl)acrylamide] | 260 ± 1 nM | 490 ± 240 nM | 74700 ± 7610 nM | 287 |  |  | 
COc1ccc2c3ccnc(C)c3n(CCNC(=O)/C=C/c3ccc(Cl)cc3)c2c1 [5e, (E)-3-(4-chlorophenyl)-N-(2-(7-methoxy-1-methyl-9H-pyrido[3,4-b]indol-9-yl)ethyl)acrylamide] | 40 ± 20 nM | 170 ± 10 nM | 2910 ± 1750 nM | 73 |  |  | 
COc1ccc2c3ccnc(C)c3n(CCNC(=O)/C=C/c3ccc(F)cc3)c2c1 [5d, (E)-3-(4-fluorophenyl)-N-(2-(7-methoxy-1-methyl-9H-pyrido[3,4-b]indol-9-yl)ethyl)acrylamide] | 90 ± 60 nM | 330 ± 110 nM | 21000 ± 880 nM | 233 |  |  | 
